Assay results as given in patent US5484778A, “Phthalocyanine photosensitizers for photodynamic therapy and methods for their use” (priority 1993, dated 1996).
“Also recorded” adds a separate entry of the source.

Experiments:
[1] = tested on: Chinese hamster V79-379 cells; test: Uptake of phthalocyanines by V79 cells relative to AlPcCl (Table 1); assay type: cell-based
Procedure: (§1) Chinese hamster V79-379 lung fibroblasts were grown in monolayer culture in McCoy's 5A medium (Gibco Laboratories, Grand Island, N.Y.) augmented with 10% calf serum and buffered with 20 mM HEPES (pH 7.4).
Total uptake was determined by scraping the phthalocyanine-treated monolayer, collecting the cells on a glass-fiber filter, and extracting the phthalocyanine in ethanol, as previously described by Ramakrishnan, et al., 1989. (Ramakrishnan, N., M. E. Clay, M. F. Horng, A. R. Antunez, & H. H. Evans, "DNA Lesions and DNA Degradation in Mouse Lymphoma L5178Y Cells After Photodynamic Treatment Sensitized by Chloroaluminum Phthalocyanine",Photochem. Photobiol, in press, 1989). The amount of drug was determined by absorption at 674 nm and expressed relative to the number of cells, as measured in a Coulter cell counter on an aliquot of the cell population. Controls included cells not treated with drug, medium alone, and drug-containing medium without cells. The results of the total uptake of the various compositions of the present invention in comparison to AlPcCl are set forth below in Table 1.
(§2) The cells were treated with 1 μM AlPcCl (from Eastman Kodak, Rochester, N.Y.) or with phthalocyanine compositions I-VI (0.5-1.0 μM final concentration in the medium) for 18 hours by adding the appropriate volume of a 1.0 mM stock solution in dimethylformamide (DMF) to the culture medium. The growth medium was replaced with 4 ml Hank's balanced salt solution (HBSS), and the cells were irradiated. The light source was a 500 W tungsten-halogen lamp located approximately 29 inches below the surface of a glass exposure tray. The visible light administered to the cells was filtered to allow passage of only that portion of the visible spectrum above 600 nm (Lee Primary red filter No. 106, Vincent Lighting, Cleveland, Ohio). The fluence rate was approximately 0.074 kJ/m^2 /s at the level of the cell monolayer.
All of the compounds have been examined for the extent of cellular uptake after exposure of V79 cells to 1 μM or less in complete medium, and the data of Table 1 are presented relative to the uptake from 1 μM AlPcCl, which was 0.723±0.172 nmole/10^7 cells (mean ±S. D., 25 determinations). […] In particular, when the concentration of Compound IV was 1 μM in the medium, the uptake into the cells was sufficiently high that some of the uptake and phototoxicity studies were repeated at 0.5 μM.

[2] = tested on: Chinese hamster V79-379 cells; test: Clonogenic cell survival / photocytotoxicity in V79 cells (Table 1, FIG. 1, FIG. 2); assay type: cell-based; conditions: for CF10 (AlPcCl)/CF10 (Pc) / F10 (AlPcCl)/F10 (Pc): 1.0 μM, 18 h; for CF10 (AlPcCl)/CF10 (Pc): CF10 = intracellular concentration x fluence reducing survival to 10%; for F10 (AlPcCl)/F10 (Pc): F10 = fluence reducing survival to 10%
Procedure: FIG. 1 is a graph illustrating the photodynamic efficacy of the various compositions of the present invention in comparison to AlPcCl. The phthalocyanine composition compounds of the present invention were tested for their photodynamic efficiency against Chinese hamster fibroblast V79 cells by colony formation. Monolayer cultures were treated with the indicated phthalocyanine composition for 18 hours, irradiated with various fluences of red light, and immediately trypsinized and replated at appropriate aliquots in triplicate. Colonies of at least 50 cells were counted after 7-10 days. The plating efficiency of the untreated cells was approximately 90%.
In this regard, in FIG. 2 the data of FIG. 1 were replotted as a function of the product of the amount of cell-associated phthalocyanine and the light fluence.
as §1, §2
Cells were irradiated at a density of approximately 2×10^6 per 25 cm^2 flask. Immediately after irradiation, the cell monolayer was treated with trypsin, and appropriate aliquots were plated in triplicate to give 100 to 200 colonies in each 10-cm Petri dish. Cell survival was determined by the ability of the cells to form colonies containing at least 50 cells. The response of cells treated with 1 μM AlPcCl and light was compared in each experiment.
Photocytotoxicity of the phthalocyanines compounds I to VI was also assessed by clonogenic assay (Table 1, FIG. 1). In all experiments, 1 μM AlPcCl was included for comparison purposes. From the survival curves (FIG. 1), the fluence reducing the cell survival to 10% (F10) was obtained. The ratio of the F10 for AlPcCl and the F10 for the test compound is recorded in Table 1.
In order to take differences in cellular uptake into consideration in the assessment of the relative efficiency of these phthalocyanines as photosensitizers of V79 cells, the survival data were replotted against the product of intracellular phthalocyanine concentration and light fluence (FIG. 2). From these curves, the product of intracellular concentration and light fluence reducing survival to 10% (CF10) was obtained, and comparisons of the values for AlPcCl and the test compounds are recorded in Table 1.

[3] = tested on: Chinese hamster V79-379 cells; test: Growth delay of V79 cultures after red light (Table 1); assay type: cell-based; conditions: for Growth Delay, efficiency relative to 1 μM AlPcCl: 18 h, 12 kJ/m^2 red light
Procedure: as §1, §2
At the time of light exposure, there were approximately 1.5×10^5 cells per 25 cm^2 flask. Following irradiation, the HBSS was replaced by 10 ml of fresh complete growth medium, and the cultures were returned to the 37° C. incubator. At various times before and after irradiation, duplicate cultures were trypsinized and counted. Controls included untreated cells and cells treated with light alone or drug alone. In addition, in each experiment, the drug to be tested was compared to a standard treatment, i.e. 1 μM AlPcCl for 18 hours followed by 12 kJ/m^2 light.
The inhibition of V79 culture growth was measured during a three day period following red light irradiation (12 kJ/m^2) of phthalocyanine-pretreated cells. With each of the active compounds, as well as with AlPcCl, there was an initial decrease in cell density, as dead cells became detached from the monolayer. Thereafter, the cell number per flask increased, as living cells grew and divided. The time for the cell density to recover to the level at the time of light exposure was considered the growth delay. […] The ratio of the growth delay for the test photosensitizer and the growth delay for AlPcCl measured in the same experiment is recorded in Table 1.

[4] = tested on: V79 cells; test: Clonogenicity, killing of V79 cells using photodynamic therapy (Table 3); assay type: cell-based, Chinese hamster
Procedure: Using the cell culture methods described above, V79 cells Chinese hamster lung fibroblasts were treated with either 0.5 or 1.0 μM of the phthalocyanines listed in Table 3. About 18 hours thereafter, the cells were irradiated with increasing doses of 675 nm broad band red light from a 500 W tungsten-halogen lamp fitted with a 600 nm high pass filter, to determine the light dosage that would kill 90% of the phthalocyanine treated cells. Where 90% of the cells were not killed, the maximum percent of cells killed were determined, (expressed as % survival) and the related light dosage recorded.

[5] = tested on: RIF-1 tumors; test: PDT of RIF-1 implanted tumors (Table 7); assay type: in vivo, C3H/HeN mice; conditions: for effect on tumor volume / growth (in words): 1 mg/kg
Procedure: The relative effectiveness at reducing tumor volume of selected phthalocyanine compounds at a given dosage was compared in vivo. RIF-1, i.e., radiation-induced fibrosarcoma, tumors were implanted into the backs of C3H/HeN mice. One tumor was implanted per mouse. Each of the phthalocyanine compounds listed in Table 7 was sonicated and vortexed in corn oil to produce a suspension. When the tumors reached […] in diameter and 2-3 mm in thickness, each mouse received 1 mg/kg in 0.1 ml of the corn oil, of the phthalocyanine suspension. For comparison, select mice received a conventional photosensitizer; either 5 mg/kg of chloroaluminum phthalocyanine tetrasulfonate, herein also referred to as "AlPcTS" in phosphate buffered saline or 5 mg/kg of Photofrin®-II in 5% dextrose. Twenty-four hours after the photosensitizers were administered, the tumors were irradiated with visible radiation delivered by an argon-pumped dye laser. The mice that received a phthalocyanine photosensitizer received light having a wavelength of 675 nm and the mice that received the Photofrin® II photosensitizer received light having a wavelength of 630 nm. Each tumor received 135 J/cm^2 of radiation. Tumor size was measured every day using calipers. The initial tumor volume was 50±10 mm^3. Tumor volume was calculated according to the hemiellipsoid model by the formula: [formula] Where l is length Where W is width

[6] = tested on: L5178Y-R (LY-R) cells; test: Clonogenic survival of PDT-treated L5178Y-R cells (Tables 4 and 5, FIG. 3); assay type: cell-based, mouse; conditions: 0.5 μM
Procedure: (§3) Mouse lymphoma L5178y-R (hereinafter also referred to as "LY-R") cells were grown in suspension culture as described in Ramakrishnan N., Oleinick, N. L. Clay, M. E., Horng, M. F., Antunez, A. R., and Evans H. H., DNA lesions and DNA degradation in mouse lymphoma L5178Y cells after photodynamic treatment sensitized by chloroaluminum phthalocyanine. Photochem. Photobiol. 50, 373-378, 1989 and Agarwal, M. L., Clay, M. E., Harvey, E. J., Evans, H. H., Antunez, A. R., and Oleinick, N. L. Photodynamic therapy induces rapid cell death by apoptosis in L5178Y mouse lymphoma cells. Cancer Res., 51, 5993-5996, 1991.
(§4) The cells were used while in exponential growth. Stock solutions of either 0.5 or 1 mM of PcIV, PcXII, PcX, PcXVIII were prepared in dimethylformamide unless otherwise indicated and added to the 10 mL medium at a rate of 1 μL per mL. After allowing 18 hours for uptake of the phthalocyanine into the cells, the flasks containing the cultures were placed on a glass exposure tray above a 500-W tungsten-halogen lamp. The exposure tray was fitted with a 600-nm high-pass filter. Flasks were exposed to various fluences of red light (up to 30 kJ/m^2) at a fluence rate of approximately 74 W/m^2). After irradiation, the cells were collected by centrifugation.
(§5) For measurement of clonogenic cell survival, aliquots were plated in medium containing soft agar as described in Ramakrishnan N., Oleinick, N. L. Clay, M. E., Horng, M. F., Antunez, A. R., and Evans H. H., DNA lesions and DNA degradation in mouse lymphoma L5178Y cells after photodynamic treatment sensitized by chloroaluminum phthalocyanine. Photochem. Photobiol. 50, 373-378, 1989. The aliquots were plated in sufficient numbers to produce 50-200 colonies. The dishes were kept in an incubator at 37° C. in an atmosphere of 5% CO2 and 95% air for 10-14 days to allow viable cells to form colonies. Colonies were counted by eye. Controls treated with the phthalocyanine alone had plating efficiencies of ~90%. The plating efficiencies of the treated cells are normalized to the plating efficiencies of control cells in each experiment. For measurement of the induction of apoptosis, DNA was isolated from the treated and control cells 2 hours after photodynamic therapy, subjected to electrophoresis on 1.5% agarose, stained with ethidium bromide, and visualized by UV transillumination, as described in Agarwal et. al. The results are shown in Tables 4, 5 and 6 and in FIG. 3.
In Table 4 each phthalocyanine was present at 0.5 μM, and the normalized plating efficiencies are presented as mean and standard deviation at each fluence tested. […] This relative activity of these four phthalocyanines is the same as obtained from screening in V79 cells.
PcXII when present in the culture medium at 0.5 μM requires less light, that is the lowest fluence, to kill either 50% […] of the cells. PcIV is about 80% as active as PcXII, PcX is 44% as active as PcXII and PcXVIII is 22% as active as PcXII.

[7] = tested on: V79 cells
Procedure: V79 cells Chinese hamster lung fibroblasts were cultured using the cell culture methods described above. […] When the filters were dry, the phthalocyanines were extracted into ethanol and the absorption determined at the peak wavelength, usually 668 nm.

[8] = tested on: L5178Y cells; test: Induction of apoptosis (DNA fragmentation) in L5178Y-R cells (Table 6); assay type: cell-based, mouse; conditions: 0.4 μM
Procedure: as §3, §4, §5
Cells were treated with various concentrations of the compounds listed in the table and various light fluences. DNA gels were prepared and examined for the characteristic "ladder" pattern of DNA fragments. For each Pc, the minimum total PDT dose tested (calculated as the product of the minimum phthalocyanine concentration and the minimum fluence) which produced visible DNA fragments is recorded. […] PcXVIII was also added at 0.5 and 1.0 μM.

[Cl][Al]1[n]2c3c4ccccc4c2N=C2N=C(N=c4c5ccccc5c([n]41)=NC1=NC(=N3)c3ccccc31)c1ccccc12 [AlPcCl, chloroaluminum phthalocyanine, reference compound]
uptake from 1 μM AlPcCl [1]: 0.723±0.172 nmole/10^7 cells
CF10 (AlPcCl)/CF10 (Pc) [2]: 1.0
F10 (AlPcCl)/F10 (Pc) [2]: 1.0
growth delay ([3]; 1 μM for 18 hours and 12 kJ/m^2 light): approximately 24 hours
Growth Delay, efficiency relative to 1 μM AlPcCl [3]: 1.0

C[N+](C)(C)CCC[Si](C)(C)[O][Al-2]123[n]4c5c6ccccc6c4N=c4c6ccccc6c([n]41)=NC1=[N+]2C(=NC2=[N+]3C(=N5)c3ccccc32)c2ccccc21.I [Compound II, AlPcOSi(CH3)2 (CH2)3 N(CH3)3^+ I^-]
photosensitizing efficiency / photocytotoxicity (in words) [2]: nearly as efficient photosensitizers as AlPcCl
CF10 (AlPcCl)/CF10 (Pc) [2]: 0.72
F10 (AlPcCl)/F10 (Pc) [2]: 0.99
Growth Delay, efficiency relative to 1 μM AlPcCl [3]: 3.4
inhibition of V79 culture growth (in words) ([3]; red light 12 kJ/m^2, three day period): substantial inhibition

CN(C)CCC[Si](C)(C)O[Si]1(O[Si](C)(C)CCCN(C)C)n2c3c4ccccc4c2N=C2N=C(N=c4c5ccccc5c(n41)=NC1=NC(=N3)c3ccccc31)c1ccccc12 [Compound XII, SiPc[OSi(CH3)2 (CH2)3 N(CH3)2]2]
LD 90 ([4]; 0.5 μM, 18 h, light dose killing 90% of cells): 3.3 kJ/m^2
photosensitizing activity, killing V79 cells (in words) ([4]; discussion of Table 3): most active at killing V79 cells
Doubling Time of Initial Tumor Volume after PDT ([5]; 1 mg/kg in corn oil, 675 nm, 135 J/cm^2): 20 days
effect on tumor volume / growth (in words) ([5]; listed as Pc XII): significantly impair the growth of the tumors
effect on tumor volume / growth (in words) ([5]; listed as PcXII): particularly effective in reducing tumor volume
LD 90 ([6]; fluence reducing survival to 10%): 1.70 kJ/m^2
LD50 ([6]; fluence reducing survival to 50%): 1.11 kJ/m^2
photosensitizer activity in LY-R cells (in words) ([6]; listed as PcXII): active photosensitizers; also recorded: most active compound of the phthalocyanines shown in Table 5
Uptake (from Table 2) [7]: 1.6 n Moles/10^6 cells/μM
Uptake into V79 cells, composite value [7]: 1.6 n Moles/10^6 cells/μM
uptake by V79 cells (in words) [7]: taken up particulary well
Minimum Demonstrated Condition to induce apoptosis: C × F [8]: 1.2 μm × kJ/m^2
Minimum Demonstrated Condition to induce apoptosis: Fluence [8]: 3.0 kJ/m^2
